Nine molecules from PubChem BioAssay (NCI) can be followed below.

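Protocol summary: plate cells (96-well), add compound at 5 concentrations, incubate 48 h, interpolate endpoints linearly. GI50 = concentration required for 50% inhibition of growth. Definition used: TGI = concentration required for complete inhibition of growth.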

For the first experiment, the system named is U251 CNS. The experiment can be described thus: NCI-60 cell line screen, 48 h.
On to `CC1CCCc2c1nn(C(=O)/C=C(\N)c1ccccc1)c2N` (stereo not drawn), for which the GI50 was 5.06 µM and the TGI was over 100 µM.

In turn, `CCCCCCCCCCCCCC(=O)OCC1OC(=O)CC1O` (stereo not drawn) yielded a TGI of over 100 µM.

`Cc1ccc2c(c1)Sc1ccc(N=NN(C)C)cc1N2C` yielded a TGI of over 100 µM.

Take `COC1OC(C)C(OCc2ccccc2)C(OS(=O)(=O)c2ccc(C)cc2)C1OS(=O)(=O)c1ccc(C)cc1` (stereo not drawn): the TGI was over 100 µM.

Regarding `Cc1ncc(C(=O)Nc2ccc(CN3CCN(C)CC3)c(C(F)(F)F)c2)cc1C#Cc1cnc(NC2CC2)c2ncccc12`, the GI50 was 0.581 µM and the TGI was 1.11 µM.

`Cc1ccc2nc3c(Cl)c(C)c(=O)cc-3sc2c1`: the GI50 was 45.1 µM and the TGI was over 100 µM.

`O=C/C(=C(/Cl)c1ccc(O)cc1)c1ccccc1` returned a TGI of over 56.5 µM.

In turn, `C=CCO/N=C/c1cc(NC(=S)c2ccoc2C)ccc1Cl` returned a TGI of 60.6 µM.

As for `CCCCCCCCCCN=C(c1ccc(N(C)C)cc1)c1ccc(N(C)C)cc1`, the GI50 is 0.579 µM and the TGI came to 33.2 µM.

In another experiment the test system is CCRF-CEM leukemia. Put plainly: NCI-60 cell line screen, 48 h.
On to `CC1CCCc2c1nn(C(=O)/C=C(\N)c1ccccc1)c2N` (stereo not drawn), for which the GI50 was 6.8 µM and the TGI was over 100 µM.

In the case of `CCCCCCCCCCCCCC(=O)OCC1OC(=O)CC1O` (stereo not drawn), the TGI was over 100 µM.

Regarding `Cc1ccc2c(c1)Sc1ccc(N=NN(C)C)cc1N2C`, the TGI is over 100 µM.

Molecule `COC1OC(C)C(OCc2ccccc2)C(OS(=O)(=O)c2ccc(C)cc2)C1OS(=O)(=O)c1ccc(C)cc1` (stereo not drawn) registered a TGI of over 100 µM.

Turning to `Cc1ncc(C(=O)Nc2ccc(CN3CCN(C)CC3)c(C(F)(F)F)c2)cc1C#Cc1cnc(NC2CC2)c2ncccc12`, the GI50 was 0.614 µM and the TGI stood at 1.46 µM.

Take `Cc1ccc2nc3c(Cl)c(C)c(=O)cc-3sc2c1`: the GI50 is 30.5 µM and the TGI is over 100 µM.

Take `O=C/C(=C(/Cl)c1ccc(O)cc1)c1ccccc1`: the TGI was over 100 µM.

`C=CCO/N=C/c1cc(NC(=S)c2ccoc2C)ccc1Cl` came in with a TGI of over 100 µM.

Turning to `CCCCCCCCCCN=C(c1ccc(N(C)C)cc1)c1ccc(N(C)C)cc1`, the GI50 was 1.78 µM and the TGI is over 77.3 µM.

A further experiment concerns IGROV1 ovarian. Put plainly: NCI-60 cell line screen, 48 h.
Regarding `CC1CCCc2c1nn(C(=O)/C=C(\N)c1ccccc1)c2N` (stereo not drawn), the GI50 was 12.5 µM and the TGI was over 100 µM.

Consider `CCCCCCCCCCCCCC(=O)OCC1OC(=O)CC1O` (stereo not drawn), for which the TGI was over 100 µM.

As for `Cc1ccc2c(c1)Sc1ccc(N=NN(C)C)cc1N2C`, the TGI was over 100 µM.

Take `COC1OC(C)C(OCc2ccccc2)C(OS(=O)(=O)c2ccc(C)cc2)C1OS(=O)(=O)c1ccc(C)cc1` (stereo not drawn): the TGI was over 100 µM.

`Cc1ncc(C(=O)Nc2ccc(CN3CCN(C)CC3)c(C(F)(F)F)c2)cc1C#Cc1cnc(NC2CC2)c2ncccc12`: the GI50 was 0.709 µM and the TGI turned out to be 1.51 µM.

In the case of `Cc1ccc2nc3c(Cl)c(C)c(=O)cc-3sc2c1`, the GI50 is over 100 µM and the TGI is over 100 µM.

`O=C/C(=C(/Cl)c1ccc(O)cc1)c1ccccc1` gave a TGI of 66.6 µM.

Turning to `C=CCO/N=C/c1cc(NC(=S)c2ccoc2C)ccc1Cl`, the TGI amounted to 32.2 µM.

With `CCCCCCCCCCN=C(c1ccc(N(C)C)cc1)c1ccc(N(C)C)cc1`, the GI50 was 0.917 µM and the TGI is over 100 µM.

A further experiment has as its system RXF 393 renal. The experiment can be described thus: NCI-60 cell line screen, 48 h.
Consider `CC1CCCc2c1nn(C(=O)/C=C(\N)c1ccccc1)c2N` (stereo not drawn), for which the GI50 is 31.3 µM and the TGI was over 100 µM.

For `CCCCCCCCCCCCCC(=O)OCC1OC(=O)CC1O` (stereo not drawn), the TGI was over 100 µM.

As for `Cc1ccc2c(c1)Sc1ccc(N=NN(C)C)cc1N2C`, the TGI was over 100 µM.

Turning to `COC1OC(C)C(OCc2ccccc2)C(OS(=O)(=O)c2ccc(C)cc2)C1OS(=O)(=O)c1ccc(C)cc1` (stereo not drawn), the TGI is over 100 µM.

Consider `Cc1ncc(C(=O)Nc2ccc(CN3CCN(C)CC3)c(C(F)(F)F)c2)cc1C#Cc1cnc(NC2CC2)c2ncccc12`, for which the GI50 was 0.606 µM and the TGI is 1.1 µM.

In the case of `Cc1ccc2nc3c(Cl)c(C)c(=O)cc-3sc2c1`, the TGI is over 100 µM.

`O=C/C(=C(/Cl)c1ccc(O)cc1)c1ccccc1` yielded a TGI of 57.2 µM.

In the case of `C=CCO/N=C/c1cc(NC(=S)c2ccoc2C)ccc1Cl`, the TGI turned out to be 65.8 µM.

Take `CCCCCCCCCCN=C(c1ccc(N(C)C)cc1)c1ccc(N(C)C)cc1`: the GI50 was 1.66 µM and the TGI was 9.87 µM.

The next experiment relates to RPMI-8226 leukemia. The experiment can be described thus: NCI-60 cell line screen, 48 h.
Take `CC1CCCc2c1nn(C(=O)/C=C(\N)c1ccccc1)c2N` (stereo not drawn): the GI50 was 9.13 µM and the TGI is over 100 µM.

On to `CCCCCCCCCCCCCC(=O)OCC1OC(=O)CC1O` (stereo not drawn), for which the TGI is over 100 µM.

Molecule `Cc1ccc2c(c1)Sc1ccc(N=NN(C)C)cc1N2C` returned a TGI of over 100 µM.

For `COC1OC(C)C(OCc2ccccc2)C(OS(=O)(=O)c2ccc(C)cc2)C1OS(=O)(=O)c1ccc(C)cc1` (stereo not drawn), the TGI was over 100 µM.

As for `Cc1ncc(C(=O)Nc2ccc(CN3CCN(C)CC3)c(C(F)(F)F)c2)cc1C#Cc1cnc(NC2CC2)c2ncccc12`, the GI50 was 0.621 µM and the TGI was found to be 1.62 µM.

For `Cc1ccc2nc3c(Cl)c(C)c(=O)cc-3sc2c1`, the TGI is over 100 µM.

Take `O=C/C(=C(/Cl)c1ccc(O)cc1)c1ccccc1`: the TGI is over 63 µM.

For the molecule `C=CCO/N=C/c1cc(NC(=S)c2ccoc2C)ccc1Cl`, the TGI came out at 12.1 µM.

`CCCCCCCCCCN=C(c1ccc(N(C)C)cc1)c1ccc(N(C)C)cc1`: the GI50 is 0.673 µM and the TGI is 16.3 µM.
